Patent publication US10465230B2, “Chemiluminescence-based haemostasis assay” (Stichting Katholieke Universiteit, priority 2010, dated 2019)
Where a name gives a salt, the structure may show the parent alone.

Columns and labels:
Format in all cases: biochemical
thrombin [1] = biological target: T1, thrombin (Homo sapiens, UniProt P00734); test: Chemiluminescent substrate cleavage by purified thrombin (luciferase/ATP luminescence); conditions: for RLU thrombin: 30 nM thrombin final, instead of plasma, assay as example 1; for RLU thrombin/RLU plasmin: ratio of signal with 30 nM thrombin to signal with 40 nM plasmin
T1 construct: allowing factor Xa to convert prothrombin to thrombin
Protocol: (§1) In a 96-wells plate (final volume 120 μl), the following components were added:
(§2) 10 μl MeO—(CH2CH2O)2-acetyl-beta-Ala-Gly-Arg-aminoluciferin TFA salt (thrombin specific substrate (10 mM)), or pyroGlu-Phe-Lys-aminoluciferin TFA salt (plasmin specific substrate (10 mM))
(§3) 2 μl Luciferase (Sigma, 72 μg/ml),
(§4) 2 μl ATP (Sigma, 0.33 mM),
(§5) 14 μl TRIS/NaCl buffer (50 mM TRIS and 150 mM NaCl, pH 7.4).
(§6) This reaction mixture was mixed, followed by the addition of 4 μl TRIS/NaCl buffer with Ca^2+ to start thrombin generation. Final concentration 16.7 mM. The resultant was mixed rapidly, and thrombin generation was monitored in a Fluostar. The settings of the Fluostar were: 140 cycli of 30 seconds, Gain: Maximum=4095. Prior to measurement, 25 μl reaction mixture was taken from the well having a total volume of 120 μl. This was pipetted in a 384-well multi-titre plate suitable for measuring luminescence. The measurement was started immediately. Luminescence is depicted in Relative luminescence units (RLU).
Various substrates were analyzed using thrombin and plasmin The assay was essentially performed as described in example 1. However, instead of plasma, plasmin or thrombin were added to final concentrations of 30 nM (thrombin) or 40 nM (plasmin).

plasmin = plasmin (Homo sapiens, UniProt P00747); test: Chemiluminescent substrate cleavage by purified plasmin (luciferase/ATP luminescence); conditions: for RLU plasmin: 40 nM plasmin final, instead of plasma, assay as example 1
Chain of plasmin (P00747 581-810 limits assumed, species assumed): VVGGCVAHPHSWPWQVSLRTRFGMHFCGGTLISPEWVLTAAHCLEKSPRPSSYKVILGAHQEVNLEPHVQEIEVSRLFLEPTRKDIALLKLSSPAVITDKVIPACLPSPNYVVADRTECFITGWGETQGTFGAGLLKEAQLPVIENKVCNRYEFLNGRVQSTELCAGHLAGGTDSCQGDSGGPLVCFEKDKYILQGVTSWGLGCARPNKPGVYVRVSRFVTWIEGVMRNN
Chain of plasmin (P00747 97-580 partner limits assumed, species assumed): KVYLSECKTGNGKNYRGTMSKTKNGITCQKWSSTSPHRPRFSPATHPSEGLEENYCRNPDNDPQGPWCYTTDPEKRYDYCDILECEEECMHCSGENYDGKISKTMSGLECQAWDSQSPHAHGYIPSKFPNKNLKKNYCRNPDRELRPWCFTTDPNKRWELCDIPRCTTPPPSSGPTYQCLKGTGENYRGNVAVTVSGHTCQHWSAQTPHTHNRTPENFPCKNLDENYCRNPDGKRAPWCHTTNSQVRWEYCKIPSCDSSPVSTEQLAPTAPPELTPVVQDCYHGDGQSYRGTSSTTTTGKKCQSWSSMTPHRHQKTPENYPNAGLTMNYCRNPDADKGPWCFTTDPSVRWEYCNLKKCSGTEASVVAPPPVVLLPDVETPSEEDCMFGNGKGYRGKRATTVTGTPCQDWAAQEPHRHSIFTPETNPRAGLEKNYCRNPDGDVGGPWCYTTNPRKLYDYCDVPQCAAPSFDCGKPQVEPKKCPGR
Protocol: as §1, §2, §3, §4, §5, §6
Various substrates were analyzed using thrombin and plasmin The assay was essentially performed as described in example 1. […]

thrombin [2] = biological target: T1, thrombin; test: Chemiluminescent substrate cleavage by purified thrombin (luciferase/ATP luminescence); conditions: 150 nM thrombin vs 40 nM plasmin in TBS buffer

Row | RLU thrombin (thrombin [1]) [RLU] | RLU thrombin/RLU plasmin (thrombin [1]) | RLU plasmin (plasmin) [RLU] | Compound | reactivity of thrombin and plasmin on the S2 substrate (FIG. 1b) (plasmin; 4 nM plasmin vs 15 nM thrombin in TBS buffer) | reactivity of thrombin and plasmin on the S1 substrate (FIG. 1a) (thrombin [2])
1 | 300946 | 0.40 | 759874 | COCCOCCOCC(=O)NC(Cc1ccccc1)C(=O)NC(CCCNC(=N)N)C(=O)Nc1ccc2nc(C3=NC(C(=O)O)CS3)sc2c1.O=C(O)C(F)(F)F (stereo not drawn) [CH3O—(CH2CH2O)2-acetyl-Phe-Arg-aminoluciferine•TFA] | – | –
2 | 292161 | 4.7 | 62387 | N=C(N)NCCC[C@H](NC(=O)CNC(=O)CCN)C(=O)Nc1ccc2nc(C3=N[C@@H](C(=O)O)CS3)sc2c1.O=C(O)C(F)(F)F.O=C(O)C(F)(F)F [H-beta-Ala-Gly-Arg-aminoluciferine•2TFA] | – | –
3 | 814171 | 3.2 | 251299 | COCCOCCOCC(=O)NCCC(=O)NCC(=O)N[C@@H](CCCNC(=N)N)C(=O)Nc1ccc2nc(C3=N[C@@H](C(=O)O)CS3)sc2c1 [MeO—(CH2CH2O)2-acetyl-beta-Ala-Gly-Arg-aminoluciferin TFA salt] | – | –
4 | 771302 | 5.3 | 146486 | N=C(N)NCCC[C@H](NC(=O)CNC(=O)CNC(=O)OCc1ccccc1)C(=O)Nc1ccc2nc(C3=N[C@@H](C(=O)O)CS3)sc2c1.O=C(O)C(F)(F)F [Cbz-Gly-Gly-Arg-aminoluciferine•TFA] | – | –
5 | 293198 | 2.2 | 134983 | COCCOCCOCCOCCOCC(=O)NCCC(=O)NCC(=O)N[C@@H](CCCNC(=N)N)C(=O)Nc1ccc2nc(C3=N[C@@H](C(=O)O)CS3)sc2c1.O=C(O)C(F)(F)F [CH3O—(CH2CH2O)4-acetyl-beta-Ala-Gly-Arg-aminoluciferine•TFA] | – | –
6 | 340768 | 0.27 | 1282351 | COCCOCCOCCOCCOCC(=O)NC(Cc1ccccc1)C(=O)NC(CCCNC(=N)N)C(=O)Nc1ccc2nc(C3=NC(C(=O)O)CS3)sc2c1.O=C(O)C(F)(F)F (stereo not drawn) [CH3O—(CH2CH2O)4-acetyl-Phe-Arg-aminoluciferine•TFA] | – | –
7 | 139546 | 0.07 | 1999875 | NCCCC[C@H](NC(=O)[C@H](Cc1ccccc1)NC(=O)[C@@H]1CCC(=O)N1)C(=O)Nc1ccc2nc(C3=N[C@@H](C(=O)O)CS3)sc2c1 [PyroGlu-Phe-Lys-aminoluciferine•TFA, pyroGlu-Phe-Lys-aminoluciferin TFA salt] | more susceptible for their respective enzyme | –
8 | – | – | – | COCCOCCOCC(=O)NCCC(=O)NCC(=O)NC(CCCNC(=N)N)C(=O)Nc1ccc2nc(C3=NC(C(=O)O)CS3)sc2c1.O=C(O)C(F)(F)F (stereo not drawn) [MeO—(CH2CH2O)2-acetyl-beta-Ala-Gly-Arg-aminoluciferin TFA salt] | – | more susceptible for their respective enzyme
9 | 925567 | 3.1 | 294631 | COCC(=O)NCCC(=O)NCC(=O)N[C@@H](CCCNC(=N)N)C(=O)Nc1ccc2nc(C3=N[C@@H](C(=O)O)CS3)sc2c1.O=C(O)C(F)(F)F [CH3O-acetyl-beta-Ala-Gly-Arg-aminoluciferine•TFA] | – | –
